In patent publication US8889677B2, “Substituted triazoles useful as mGlu5 receptor modulators” (Boehringer Ingellheim International GmbH, priority 2012, dated 2014):

These compounds were tested against T1, human recombinant mGluR5 (Homo sapiens, UniProt P41594) (assay: positive modulation of mGluR5, calcium based FLIPR assay in HEK 293 cells). Conditions: HEK 293 cell line expressing human recombinant mGluR5; EC50 of the modulation of the glutamate response (glutamate approx. 5% basal stimulation); peak height of Ca release fluorescence signal.
T1 construct: expressed in transfected cells; host or cells: HEK 293 cell line cultured with tetracycline, hygromycin and geneticin; tetracycline removed 3-7 days before the assay
Summary of the method: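 Potentiation EC50 derived by nonlinear fit of peak calcium fluorescence after a near-5%-maximal glutamate challenge, following 5 min compound exposure (intrinsic activity also recorded). Dye-loaded recombinant human mGluR5 HEK 293 cells in Ringer solution pH 7.4, 1% DMSO; plate controls were vehicle (100%) and 10 μM CDPPB (200%).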

T1 sequence (P41594 21-1212): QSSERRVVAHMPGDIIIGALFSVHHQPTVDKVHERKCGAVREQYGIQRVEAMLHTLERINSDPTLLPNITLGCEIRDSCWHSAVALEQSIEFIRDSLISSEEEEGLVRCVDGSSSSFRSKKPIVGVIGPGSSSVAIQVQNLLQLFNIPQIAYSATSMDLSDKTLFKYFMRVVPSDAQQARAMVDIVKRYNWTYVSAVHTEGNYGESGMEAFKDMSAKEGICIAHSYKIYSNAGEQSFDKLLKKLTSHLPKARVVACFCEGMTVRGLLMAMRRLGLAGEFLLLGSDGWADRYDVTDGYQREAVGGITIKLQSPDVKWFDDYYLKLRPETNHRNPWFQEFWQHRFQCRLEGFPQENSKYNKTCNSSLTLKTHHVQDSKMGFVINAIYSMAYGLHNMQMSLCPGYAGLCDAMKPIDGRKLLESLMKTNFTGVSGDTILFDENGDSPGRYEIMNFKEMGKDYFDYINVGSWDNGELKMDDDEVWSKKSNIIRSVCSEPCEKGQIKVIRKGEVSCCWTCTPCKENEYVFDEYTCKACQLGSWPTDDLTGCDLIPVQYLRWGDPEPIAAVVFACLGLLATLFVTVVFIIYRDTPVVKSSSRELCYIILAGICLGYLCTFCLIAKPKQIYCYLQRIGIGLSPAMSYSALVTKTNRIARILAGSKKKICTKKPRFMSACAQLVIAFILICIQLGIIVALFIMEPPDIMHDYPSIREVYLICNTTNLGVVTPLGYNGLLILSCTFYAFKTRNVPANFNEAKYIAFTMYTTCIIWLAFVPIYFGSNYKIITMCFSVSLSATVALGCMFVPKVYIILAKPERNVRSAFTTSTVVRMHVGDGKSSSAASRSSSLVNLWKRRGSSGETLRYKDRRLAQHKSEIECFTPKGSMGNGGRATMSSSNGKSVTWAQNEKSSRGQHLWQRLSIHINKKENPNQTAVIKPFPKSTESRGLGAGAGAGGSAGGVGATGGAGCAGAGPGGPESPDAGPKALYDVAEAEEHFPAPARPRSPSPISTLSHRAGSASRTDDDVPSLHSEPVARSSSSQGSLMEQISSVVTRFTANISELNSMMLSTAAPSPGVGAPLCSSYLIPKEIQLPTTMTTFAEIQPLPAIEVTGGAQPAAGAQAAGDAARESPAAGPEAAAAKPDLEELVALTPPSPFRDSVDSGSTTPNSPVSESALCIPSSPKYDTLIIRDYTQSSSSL

Row | SMILES | EC50 [nM]
1 | CN(C)c1cc(N2CCN(C(=O)Cn3nc(-c4ccc(F)cc4)nc3-c3ccc(F)cc3)CC2)ncn1 [Example 07.06.01., 2-(3,5-Bis-(4-fluoro-phenyl)-(1,2,4)triazol-1-yl)-1-(4-(6-dimethylamino-pyrimidin-4-yl)-piperazin-1-yl)-ethanone] | 167
2 | CCOc1cc(N2CCN(C(=O)Cn3nc(-c4ccc(F)cc4)nc3-c3ccc(F)cc3)CC2)ncn1 [Example 07.06.02.] | 70
3 | COCCOc1cc(N2CCN(C(=O)Cn3nc(-c4ccc(F)cc4)nc3-c3ccc(F)cc3)CC2)ncn1 [Example 07.06.03.] | 101
4 | CC(C)Oc1cc(N2CCN(C(=O)Cn3nc(-c4ccc(F)cc4)nc3-c3ccc(F)cc3)CC2)ncn1 [Example 07.06.04.] | 153
5 | O=C(Cn1nc(-c2ccc(F)cc2)nc1-c1ccc(F)cc1)N1CCN(c2cc(OCCO)ncn2)CC1 [Example 07.07.01., 2-(3,5-bis-(4-fluoro-phenyl)-(1,2,4)triazol-1-yl)-1-(4-(6-(2-hydroxy-ethoxy)-pyrimidin-4-yl)-piperazin-1-yl)-ethanone] | 165
6 | CN(C)CCOc1cc(N2CCN(C(=O)Cn3nc(-c4ccc(F)cc4)nc3-c3ccc(F)cc3)CC2)ncn1 [Example 07.07.02.] | 988
7 | CN(CC1CCOC1)c1cc(N2CCN(C(=O)Cn3nc(-c4ccc(F)cc4)nc3-c3ccc(F)cc3)CC2)ncn1 (stereo not drawn) [Example 07.08.01., 2-(3,5-bis-(4-fluoro-phenyl)-(1,2,4)triazol-1-yl)-1-(4-(6-(methyl-(tetrahydro-furan-3-ylmethyl)-amino)-pyrimidin-4-yl)-piperazin-1-yl)-ethanone] | 201
8 | O=C(Cn1nc(-c2ccc(F)cc2)nc1-c1ccc(F)cc1)N1CCN(c2cc(N3CCC(O)CC3)ncn2)CC1 [Example 07.08.02.] | 284
9 | COCCN(C)c1cc(N2CCN(C(=O)Cn3nc(-c4ccc(F)cc4)nc3-c3ccc(F)cc3)CC2)ncn1 [Example 07.08.03.] | 238
10 | O=C(Cn1nc(-c2ccc(F)cc2)nc1-c1ccc(F)cc1)N1CCN(c2cc(NC3CC3)ncn2)CC1 [Example 07.08.04.] | 430
11 | O=C(Cn1nc(-c2ccc(F)cc2)nc1-c1ccc(F)cc1)N1CCN(c2cc(NC3CCOCC3)ncn2)CC1 [Example 07.08.05.] | 510
12 | COC1CCN(c2cc(N3CCN(C(=O)Cn4nc(-c5ccc(F)cc5)nc4-c4ccc(F)cc4)CC3)ncn2)CC1 [Example 07.08.06.] | 259
13 | CC(C)Nc1cc(N2CCN(C(=O)Cn3nc(-c4ccc(F)cc4)nc3-c3ccc(F)cc3)CC2)ncn1 [Example 07.08.07.] | 151
14 | CC(C)CCN(C)c1cc(N2CCN(C(=O)Cn3nc(-c4ccc(F)cc4)nc3-c3ccc(F)cc3)CC2)ncn1 [Example 07.08.08.] | 359
15 | CN(CCO)c1cc(N2CCN(C(=O)Cn3nc(-c4ccc(F)cc4)nc3-c3ccc(F)cc3)CC2)ncn1 [Example 07.08.09.] | 332
16 | COCCN1CCN(c2cc(N3CCN(C(=O)Cn4nc(-c5ccc(F)cc5)nc4-c4ccc(F)cc4)CC3)ncn2)CC1 [Example 07.08.10.] | 1030
17 | COCCCN(C)c1cc(N2CCN(C(=O)Cn3nc(-c4ccc(F)cc4)nc3-c3ccc(F)cc3)CC2)ncn1 [Example 07.08.11.] | 293
18 | CCNc1cc(N2CCN(C(=O)Cn3nc(-c4ccc(F)cc4)nc3-c3ccc(F)cc3)CC2)ncn1 [Example 07.08.12.] | 210
19 | O=C(Cn1nc(-c2ccc(F)cc2)nc1-c1ccc(F)cc1)N1CCN(c2cc(N3CCCC3)ncn2)CC1 [Example 07.08.13.] | 343

Row | SMILES | EC50 [nM]
20 | CN1CCN(c2cc(N3CCN(C(=O)Cn4nc(-c5ccc(F)cc5)nc4-c4ccc(F)cc4)CC3)ncn2)CC1=O [Example 07.08.14.] | 822
21 | CCN(CC)c1cc(N2CCN(C(=O)Cn3nc(-c4ccc(F)cc4)nc3-c3ccc(F)cc3)CC2)ncn1 [Example 07.08.15.] | 205
22 | CN1CCC(Nc2cc(N3CCN(C(=O)Cn4nc(-c5ccc(F)cc5)nc4-c4ccc(F)cc4)CC3)ncn2)CC1 [Example 07.08.16.] | 1160
23 | O=C(Cn1nc(-c2ccc(F)cc2)nc1-c1ccc(F)cc1)N1CCN(c2cc(NCc3ccccn3)ncn2)CC1 [Example 07.08.17.] | 286
24 | CN(c1cc(N2CCN(C(=O)Cn3nc(-c4ccc(F)cc4)nc3-c3ccc(F)cc3)CC2)ncn1)C1CC1 [Example 07.08.18.] | 455
25 | CCN(C)c1cc(N2CCN(C(=O)Cn3nc(-c4ccc(F)cc4)nc3-c3ccc(F)cc3)CC2)ncn1 [Example 07.08.19.] | 208
26 | O=C(Cn1nc(-c2ccc(F)cc2)nc1-c1ccc(F)cc1)N1CCN(c2cc(NC3CCC3)ncn2)CC1 [Example 07.08.20.] | 155
27 | COCCNc1cc(N2CCN(C(=O)Cn3nc(-c4ccc(F)cc4)nc3-c3ccc(F)cc3)CC2)ncn1 [Example 07.08.21.] | 201
28 | O=C(Cn1nc(-c2ccc(F)cc2)nc1-c1ccc(F)cc1)N1CCN(c2cc(N3CCC3)ncn2)CC1 [Example 07.08.22.] | 280
29 | CN1CCN(c2cc(N3CCN(C(=O)Cn4nc(-c5ccc(F)cc5)nc4-c4ccc(F)cc4)CC3)ncn2)CC1 [Example 07.08.23.] | 1590
30 | CNc1cc(N2CCN(C(=O)Cn3nc(-c4ccc(F)cc4)nc3-c3ccc(F)cc3)CC2)ncn1 [Example 07.08.24.] | 191
31 | COCCCCOc1cc(N2CCN(C(=O)Cn3nc(-c4ccc(F)cc4)nc3-c3ccc(F)cc3)CC2)ncn1 [Example 07.09.01., 2-(3,5-Bis-(4-fluoro-phenyl)-(1,2,4)triazol-1-yl]-1-(4-(6-(4-methoxy-butoxy)-pyrimidin-4-yl)-piperazin-1-yl)-ethanone] | 68
32 | O=C(Cn1nc(-c2ccc(F)cc2)nc1-c1ccc(F)cc1)N1CCN(c2cc(OCC3CCCO3)ncn2)CC1 (stereo not drawn) [Example 07.09.02.] | 59
33 | O=C(Cn1nc(-c2ccc(F)cc2)nc1-c1ccc(F)cc1)N1CCN(c2cc(OC[C@H]3CCCO3)ncn2)CC1 [Example 07.09.03.] | 58
34 | O=C(Cn1nc(-c2ccc(F)cc2)nc1-c1ccc(F)cc1)N1CCN(c2cc(OCCOCCO)ncn2)CC1 [Example 07.09.04.] | 64
35 | O=C(Cn1nc(-c2ccc(F)cc2)nc1-c1ccc(F)cc1)N1CCN(c2cc(OCC3CCOC3)ncn2)CC1 (stereo not drawn) [Example 07.09.05.] | 41
36 | COCCOCCOc1cc(N2CCN(C(=O)Cn3nc(-c4ccc(F)cc4)nc3-c3ccc(F)cc3)CC2)ncn1 [Example 07.09.06.] | 130
37 | O=C(Cn1nc(-c2ccc(F)cc2)nc1-c1ccc(F)cc1)N1CCN(c2cc(OCCN3CCOCC3)ncn2)CC1 [Example 07.09.07.] | 110
38 | CC(=O)N1CCC(Oc2cc(N3CCN(C(=O)Cn4nc(-c5ccc(F)cc5)nc4-c4ccc(F)cc4)CC3)ncn2)CC1 [Example 07.09.08.] | 74

Row | SMILES | EC50 [nM]
39 | O=C(Cn1nc(-c2ccc(F)cc2)nc1-c1ccc(F)cc1)N1CCN(c2cc(OC3CCCOC3)ncn2)CC1 (stereo not drawn) [Example 07.09.09.] | 109
40 | O=C(Cn1nc(-c2ccc(F)cc2)nc1-c1ccc(F)cc1)N1CCN(c2cc(OCC3CCCCO3)ncn2)CC1 (stereo not drawn) [Example 07.09.10.] | 52
41 | O=C(Cn1nc(-c2ccc(F)cc2)nc1-c1ccc(F)cc1)N1CCN(c2cc(O[C@H]3CCOC3)ncn2)CC1 [Example 07.09.11.] | 56
42 | O=C1CCCN1CCOc1cc(N2CCN(C(=O)Cn3nc(-c4ccc(F)cc4)nc3-c3ccc(F)cc3)CC2)ncn1 [Example 07.09.12.] | 170
43 | O=C(Cn1nc(-c2ccc(F)cc2)nc1-c1ccc(F)cc1)N1CCN(c2cc(OCc3ccccn3)ncn2)CC1 [Example 07.09.13.] | 47
44 | COC[C@@H](C)Oc1cc(N2CCN(C(=O)Cn3nc(-c4ccc(F)cc4)nc3-c3ccc(F)cc3)CC2)ncn1 [Example 07.09.14.] | 38
45 | O=C(Cn1nc(-c2ccc(F)cc2)nc1-c1ccc(F)cc1)N1CCN(c2cc(O[C@H]3COC[C@H]3O)ncn2)CC1 [Example 07.09.15.] | 224
46 | O=C(Cn1nc(-c2ccc(F)cc2)nc1-c1ccc(F)cc1)N1CCN(c2cc(OCCOCCOCCO)ncn2)CC1 [Example 07.09.16.] | 173
47 | O=C(Cn1nc(-c2ccc(F)cc2)nc1-c1ccc(F)cc1)N1CCN(c2cc(OCCn3ccnc3)ncn2)CC1 [Example 07.09.17.] | 106
48 | O=C(Cn1nc(-c2ccc(F)cc2)nc1-c1ccc(F)cc1)N1CCN(c2cc(OCCN3CCNC3=O)ncn2)CC1 [Example 07.09.18.] | 103
49 | O=C(Cn1nc(-c2ccc(F)cc2)nc1-c1ccc(F)cc1)N1CCN(c2cc(OCCCN3CCOCC3)ncn2)CC1 [Example 07.09.19.] | 200
50 | O=C(Cn1nc(-c2ccc(F)cc2)nc1-c1ccc(F)cc1)N1CCN(c2cc(OCCCO)ncn2)CC1 [Example 07.09.20.] | 65
51 | O=C(Cn1nc(-c2ccc(F)cc2)nc1-c1ccc(F)cc1)N1CCN(c2cc(OC3CCOCC3)ncn2)CC1 [Example 07.09.21.] | 79
52 | O=C(Cn1nc(-c2ccc(F)cc2)nc1-c1ccc(F)cc1)N1CCN(c2cc(OCc3cccnc3)ncn2)CC1 [Example 07.09.22.] | 39
53 | O=C(Cn1nc(-c2ccc(F)cc2)nc1-c1ccc(F)cc1)N1CCN(c2cc(OC[C@@H]3CCCO3)ncn2)CC1 [Example 07.09.23.] | 62
54 | O=C1CC(COc2cc(N3CCN(C(=O)Cn4nc(-c5ccc(F)cc5)nc4-c4ccc(F)cc4)CC3)ncn2)CN1 (stereo not drawn) [Example 07.09.24.] | 101
55 | CN(CCO)CCOc1cc(N2CCN(C(=O)Cn3nc(-c4ccc(F)cc4)nc3-c3ccc(F)cc3)CC2)ncn1 [Example 07.09.25.] | 301
56 | CN1CCN(CCCOc2cc(N3CCN(C(=O)Cn4nc(-c5ccc(F)cc5)nc4-c4ccc(F)cc4)CC3)ncn2)CC1 [Example 07.09.26.] | 252
57 | O=C1CCCN1CCCOc1cc(N2CCN(C(=O)Cn3nc(-c4ccc(F)cc4)nc3-c3ccc(F)cc3)CC2)ncn1 [Example 07.09.27.] | 86
